Experimental data: publication PMC8318231, “Rate-of-Kill (RoK) assays to triage large compound sets for Chagas disease drug discovery: Application to GSK Chagas Box” (PLoS Neglected Tropical Diseases, 2021)

Assays:
[1] = system: T. cruzi Tulahuen trypomastigotes; test: T. cruzi trypomastigote assay (Cell Titer-Glo viability, ATP luminescence); assay type: cell-based, Trypanosoma cruzi; conditions: for Trypomastigotes pIC50 48 hours: 48 hours incubation; for Trypomastigotes pIC50 48 hours / Trypomastigotes pIC50 72 hours: pIC50 = -log10 IC50 in molar units; for Trypomastigotes pIC50 72 hours: 72 hours incubation; for 72 pIC50 (trypomastigotes, raw data of Fig 1D): 72 hours, plotted values, censored values given without sign; for 48 pIC50 / 72 pIC50: trypomastigote assay; for 48 pIC50: 48 h; for 72 pIC50: 72 h
How it was run: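 Tulahuen trypomastigotes from infected LLC-MK2 culture supernatants (days 5–8) plated at 5 × 10^4 per well in DMEM/2% FBS with compound at 5 μM single-shot final or in dose response. Viability by CellTiter-Glo ATP luminescence after 10 min at room temperature, normalised to no-cell (100%) and DMSO (0%) controls.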

[2] = system: T. cruzi intracellular amastigotes in H9c2 cells; test: Rate-of-Kill (RoK) high-content imaging assay, amastigotes per cell (AM/CELL) and curve descriptors; assay type: cell-based, Trypanosoma cruzi; set-up: key to ME_24h / ME_48h / ME_72h: % reduction in parasite burden (cidal response); t50pct_MCC50 / t50pct_Cmax: unit not given here; conditions: for ME_24h: 24h; for ME_48h: 48h; for ME_72h: 72h; for tlag_Cmax / t50pct_Cmax / t50%_Cmax: at Cmax; for ME_24h (%): maximum effect at 24 h; for ME_24h (%) / ME_48h (%) / ME_72h (%): RoK assay; for ME_48h (%): maximum effect at 48 h; for ME_72h (%): maximum effect at 72 h; for ME 24h (maximum effect at 24 hours, intracellular amastigotes): maximum percentage of parasite burden reduction reached by any concentration
Protocol: For this high-content intracellular imaging assay, H9c2 cells were seeded in 225 cm^2 T- FLASK in DMEM with 10% FBS for 4 h to allow attachment. T. cruzi trypomastigotes, collected at days 5 to 8 after infection from LLC-MK2 parasite infected cultures, were allowed to swim out for 4 h at 37°C from a centrifuged pellet (1,600 x g / 10 min). Trypomastigotes were then collected and counted in a CASY Cell Counter using the 60 μm capillary. Trypomastigotes, in supplemented DMEM, were added to H9c2 cultures in a multiplicity of infection (MOI) of 8 and incubated for 18 h. Cells were washed once with PBS before incubation of the infected H9c2 monolayer with trypsin (Life-Technologies) to detach cells from the flask. Cells were counted in a CASY Cell Counter, using the 150 μm capillary, and their density set at 5 x 10^4 cells/mL in supplemented DMEM. Infected H9c2 were dispensed into 384-well plates at 50 μL per well using a Multidrop Combi dispenser. Control wells used to determine a 100% parasitic growth (full 6th column of each plate) were left untreated, whereas not infected cells were added in the control wells used as 0% parasite growth (or 100% parasite growth inhibition; full 18th column of each plate). The four plates corresponding to each RoK assay were predispensed for the same mother plate. […] Cultures were then fixed and stained with 50 μL per well of a PBS solution containing 4% formaldehyde and 2 μM DRAQ5 DNA dye (BioStatus, UK). Then plates were read in a PerkinElmer Opera Phenix using a 20x objective, 3 fields per well. DRAQ5 signal was detected using 640 nm excitation laser and a 690/50 nm emission detection filter. Automated image analysis was performed with a script developed on Acapella High Content Imaging and Analysis Software (PerkinElmer). Two outputs were provided for each sample well: (1) number of host cells nuclei to determine drug-related cytotoxicity (aka H9c2) and (2) number of amastigotes per cell as infection level measurement (aka AM/CELL). Each output is plotted as a time course for each compound at every concentration. This assay was adapted from Alonso-Padilla et al. and Peña et al..
To identify and classify the different compounds, the number of amastigotes per cell (AM/CELL) raw data obtained in rate of kill assay are normalised using the average of C1 (infected cells) at time 4 hours as 0% effect and the average of C2 (non-infected cells) for each time as 100% effect, according to the following Eq 1: %CIDALRESPONSE=100*[Avg_C14h-RawData]/[Avg_C14h-Avg_C2] (1)
• ME (Maximum Effect) is the maximum percentage of parasite burden reduction reached by any compound concentration. Compounds that decrease the initial parasite load will show a positive value of ME, whereas compounds that allow the progression of infection will render a negative ME value. […] It is calculated for the MCC50 (t50%_MCC50) and for the maximum concentration (t50%_Cmax). […] The value of this parameter is not either interpolated or extrapolated, and it refers to the first experimental time-course point at which a 50% of effect is reached or exceeded. • tlag defines the time elapsed for one particular concentration to reduce parasite burden between two consecutive points at any moment of the time course. It is calculated for the MCC50 (tlag_MCC50) and for the maximum concentration (tlag_Cmax). The value of this parameter is not either interpolated or extrapolated, and it refers to the first experimental time-course point of a positive slope in the normalised plot (i.e. %Cidal_Response). • Cmin_Tox (Minimal CytoToxic Concentration) is the lowest compound concentration that is reducing the number of host mammalian cells below 50% of initial cell density. Cytotoxic compounds may mislead a bona fide antiparasitic action.

Structure (SMILES) | Trypomastigotes pIC50 48 hours [1] | Trypomastigotes pIC50 72 hours [1] | ME_24h ([2]; figure 5) | ME_48h ([2]; figure 5) | ME_72h ([2]; figure 5) | MCCE ([2]; RoK curve descriptor) [µM] | AM/CELL NORM ([2]; Time 4, sheet figure 4 A) | AM/CELL NORM ([2]; Time 24, sheet figure 4 A) | AM/CELL NORM ([2]; Time 48, sheet figure 4 A) | AM/CELL NORM ([2]; Time 72, sheet figure 4 A) | tlag_Cmax [2] [h] | t50pct_Cmax ([2]; figure 5) | tlag_Cmax ([2]; figure 5) | t50pct_MCC50 ([2]; at MCC50, figure 5) | tlag_MCC50 ([2]; at MCC50, figure 5) | MCCE ([2]; figure 5) | ME_24h (%) [2] [%] | ME_48h (%) [2] [%] | ME_72h (%) [2] [%] | ME 24h (maximum effect at 24 hours, intracellular amastigotes) [2] [%] | further results
COc1cc(C(C)C)c(S(C)(=O)=O)cc1C(=O)N1CCN(c2ccccc2Cl)CC1 [TCMDC-143097] | < 4.3 | < 4.3 | -95.8223 | -1.8208 | 22.9753 | 1.9 | -12.0353 | -95.8223 | -56.5005 | 8.079 | 24.0 | 72 | 24 | 72 | 72 | 1.852 | -95.8 | -1.8 | 23.0 | -95.8223 | 72 pIC50 (trypomastigotes, raw data of Fig 1D) [1]: < 4.3; 48 pIC50 ([1]; figure 1A): < 4.3; 72 pIC50 ([1]; figure 1A): < 4.3; 72 pIC50 ([1]; figure 1B): < 4.3; MCC50 ([2]; figure 5): 50 µM
COc1ccc(NS(=O)(=O)c2cccc(NC(=O)c3cc(F)cc(F)c3)c2)cc1 [TCMDC-143108] | 5 | 5.6 | 74.207 | 103.042 | 85.1326 | 1.9 |  |  |  |  | 4.0 | 24 | 4 | 48 | 14 | 1.852 | 74.2 | 103.0 | 85.1 | 70.2211 | MCC50 ([2]; RoK curve descriptor): 5.6 µM; AM/CELL NORM ([2]; Time 4, figure 4 A): 3.957; AM/CELL NORM ([2]; Time 24, figure 4 A): 27.4841; AM/CELL NORM ([2]; Time 48, figure 4 A): 38.7704; AM/CELL NORM ([2]; Time 72, figure 4 A): 44.9716; t50%_Cmax [2]: 24.0 h; t50%_MCC50 ([2]; at MCC50): 48.0 h; tlag_MCC50 ([2]; at MCC50): 14.0 h; MCC50 ([2]; figure 5, in µM): 5.556
Cc1cc(N(C)C)nc(Nc2ccccc2C)n1 [TCMDC-143109] | 5.7 | 5.6 | 47.5747 | 78.0835 | 82.1728 | 1.9 | 2.321 | 36.6087 | 78.0835 | 76.3621 | 4.0 | 48 | 4 | 48 | 4 | 1.852 | 47.6 | 78.1 | 82.2 | 47.5747 | MCC50 ([2]; RoK curve descriptor): 5.6 µM; t50%_Cmax [2]: 48.0 h; t50%_MCC50 ([2]; at MCC50): 48.0 h; tlag_MCC50 ([2]; at MCC50): 4.0 h; MCC50 ([2]; figure 5, in µM): 5.556
O=C1CSC(c2cccnc2)N1c1ccc(Cl)cc1Cl (stereo not shown) [TCMDC-143114] | < 4.3 | < 4.3 | -4.949 | 48.1247 | 74.0117 | 0.6 | 4.621 | -4.949 | 48.1247 | 74.0117 | 24.0 | 72 | 24 | 72 | 24 | 0.6173 | -5.0 | 48.1 | 74.0 | -4.949 | 72 pIC50 (trypomastigotes, raw data of Fig 1D) [1]: < 4.3; 48 pIC50 ([1]; figure 1A): < 4.3; 72 pIC50 ([1]; figure 1A): < 4.3; 72 pIC50 ([1]; figure 1B): < 4.3; MCC50 ([2]; RoK curve descriptor): 50.0 µM; t50%_Cmax [2]: 72.0 h; t50%_MCC50 ([2]; at MCC50): 72.0 h; tlag_MCC50 ([2]; at MCC50): 24.0 h; MCC50 ([2]; figure 5): 50 µM
CN1CCCN(C(=O)c2ccc(N3CCCC3)cc2Cl)CC1 [TCMDC-143127] | < 4.3 | < 4.3 | -63.1294 | 41.4777 | 77.6777 | 1.9 | 3.238 | -70.995 | 17.9659 | 59.5367 | 24.0 | 67.2 | 24 | 72 | 24 | 1.852 | -63.1 | 41.5 | 77.7 | -38.4049 | 72 pIC50 (trypomastigotes, raw data of Fig 1D) [1]: < 4.3; 48 pIC50 ([1]; figure 1A): < 4.3; 72 pIC50 ([1]; figure 1A): < 4.3; 72 pIC50 ([1]; figure 1B): < 4.3; MCC50 ([2]; RoK curve descriptor): 7.0 µM; t50%_Cmax [2]: 67.2 h; t50%_MCC50 ([2]; at MCC50): 72.0 h; tlag_MCC50 ([2]; at MCC50): 24.0 h; MCC50 ([2]; figure 5, in µM): 7.037
